According to patent publication US7709492B2, “Pyrazolo-[4,3-e]-1,2,4-triazolo-[1,5-c]-pyrimidine adenosine A2a receptor antagonists” (Schering Corporation, priority 2004, dated 2010):

Target: T1, Human A2a Adenosine Receptor (Homo sapiens, UniProt P29274)
T1 construct: purchased Receptor Biology, Inc., Beltsville, Md; RB-HA2a
Test: Human adenosine A2a receptor competition binding assay
Settings: [3H]-SCH 58261 displacement, human A2a membranes
Procedure: Human Adenosine A2a and A1 Receptor Competition Binding Assay Protocol
A2a: Human A2a Adenosine Receptor membranes, Catalog #RB-HA2a, Receptor Biology, Inc., Beltsville, Md. Dilute to 17 μg/100 μl in membrane dilution buffer (see below).
Membrane dilution buffer: Dulbecco's Phosphate Buffered Saline (Gibco/BRL)+10 mM MgCl2.
Compound Dilution Buffer: Dulbecco's Phosphate Buffered Saline (Gibco/BRL)+10 mM MgCl2 supplemented with 1.6 mg/ml methyl cellulose and 16% DMSO. Prepared fresh daily.
A2a: [3H]-SCH 58261, custom synthesis, AmershamPharmacia Biotech, Piscataway, N.J. Stock is prepared at 1 nM in membrane dilution buffer. Final assay concentration is 0.5 nM.
A2a: To determine non-specific binding, add 100 nM CGS 15923 (RBI, Natick, Mass.). Working stock is prepared at 400 nM in compound dilution buffer.
Prepare 1 mM stock solutions of compounds in 100% DMSO. Dilute in compound dilution buffer. Test at 10 concentrations ranging from 3 μM to 30 pM. Prepare working solutions at 4× final concentration in compound dilution buffer.
Perform assays in deep well 96 well plates. Total assay volume is 200 μl. Add 50 μl compound dilution buffer (total ligand binding) or 50 μl CGS 15923 working solution (A2a non-specific binding) or 50 μl, NECA working solution (A1 non-specific binding) or 50 μl of drug working solution. Add 50 μl ligand stock ([3H]-SCH 58261 for A2a, [3H]-DPCPX for A1). […]

T1 sequence (P29274 whole entry): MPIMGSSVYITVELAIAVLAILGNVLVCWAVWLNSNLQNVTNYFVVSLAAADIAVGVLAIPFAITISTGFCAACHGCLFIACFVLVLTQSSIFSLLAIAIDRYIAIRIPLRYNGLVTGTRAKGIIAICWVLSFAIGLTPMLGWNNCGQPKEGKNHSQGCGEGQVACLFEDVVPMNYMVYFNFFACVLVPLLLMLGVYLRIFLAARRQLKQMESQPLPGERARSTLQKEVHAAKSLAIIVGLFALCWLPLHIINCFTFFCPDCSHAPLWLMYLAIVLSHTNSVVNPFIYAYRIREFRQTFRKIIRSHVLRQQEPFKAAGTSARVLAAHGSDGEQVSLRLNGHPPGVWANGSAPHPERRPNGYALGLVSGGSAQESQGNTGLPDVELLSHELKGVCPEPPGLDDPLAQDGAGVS

Ki: 0.3 nM
SMILES: Nc1nc2c(cnn2CCN2CCN(c3cc(-c4ncco4)ccc3F)CC2)c2nc(-c3ccccn3)nn12 [Example 12-31]
